Results taken from patent publication US20050282840A1, “Methods of modulating neurotrophin-mediated activity” (PainCeptor Pharma Corporation, priority 2004, published 2005).
Read-outs that look alike come from different tables or passages of the source.

Tests used:
[1] = molecular target: T1, p75^NTR receptors (PC12 cells) (Rattus norvegicus, UniProt P07174); experiment: Basic screening assay: binding of 125I-BDNF to PC12 cells; settings: read-out: BDNF Activity % Maximal Binding
T1 construct: endogenous in cells; host or cells: PC12 cells
T1 sequence (P07174 30-425): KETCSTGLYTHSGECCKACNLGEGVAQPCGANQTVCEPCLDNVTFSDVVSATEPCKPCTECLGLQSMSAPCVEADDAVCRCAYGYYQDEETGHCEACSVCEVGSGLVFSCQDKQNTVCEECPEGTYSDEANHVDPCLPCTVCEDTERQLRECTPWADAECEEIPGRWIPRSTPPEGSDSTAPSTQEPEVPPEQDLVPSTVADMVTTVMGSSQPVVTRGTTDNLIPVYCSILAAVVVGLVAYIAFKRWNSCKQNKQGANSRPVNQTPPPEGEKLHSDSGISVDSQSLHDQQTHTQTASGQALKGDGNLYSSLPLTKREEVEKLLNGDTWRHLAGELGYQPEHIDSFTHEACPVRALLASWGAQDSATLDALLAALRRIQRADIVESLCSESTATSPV
T1 sequence (P23560 129-247 partner): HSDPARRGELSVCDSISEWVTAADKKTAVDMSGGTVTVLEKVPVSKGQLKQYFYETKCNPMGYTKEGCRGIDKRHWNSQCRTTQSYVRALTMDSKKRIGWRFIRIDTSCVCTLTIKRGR
In short: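 4×10^6 PC12 cells incubated 2 h at 4° C, rotating, with 0.5 nM ^125I-BDNF (final) and compound at 50 μM, in duplicate or more. Bound ligand separated through 10% glycerol by centrifugation and counted by gamma counter; specific binding is Bmax minus NSB; inhibitors followed up for EC50.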

[2] = tested on: p75^NTR receptors (PC12 cells); experiment: Basic screening assay: binding of 125I-NGF to PC12 cells; settings: test compound 50 μM, 0.5 nM 125I-NGF, PC12 cells, 2 h at 4° C., specific binding as percent of control
In short: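 Inhibition of 0.5 nM 125I-NGF binding to p75NTR on PC12 cells was measured with compounds at 50 μM during 2 h rotation at 4° C. Cell-bound radioactivity from glycerol-cushion centrifugation was gamma-counted, giving NSB-corrected binding as % of control specific binding.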

[3] = Table 4, test compound 50 μM, 0.5 nM 125I-BDNF, PC12 cells, 2 h at 4° C., specific binding as percent of control
[4] = Table 1, test compound 50 μM, 0.5 nM 125I-BDNF, PC12 cells, 2 h at 4° C., specific binding as percent of control
[5] = Table 2, test compound 50 μM, 0.5 nM 125I-BDNF, PC12 cells, 2 h at 4° C., specific binding as percent of control

| SMILES | activity at 50 µM [1, 3] | NGF Activity % Maximal Binding ([2]; Table 4) | activity at 50 µM [1, 4] | NGF Activity % Maximal Binding ([2]; Table 1) | further results |
| --- | --- | --- | --- | --- | --- |
| CCc1ccc(N2NC(=O)/C(=C/c3ccc(-c4ccc(S(N)(=O)=O)cc4)o3)C2=O)cc1 [Compound 104, 4-{5-[1-(4-Ethylphenyl)-3,5-dioxo-pyrazolidin-4-ylidenemethyl]furan-2-yl}benzenesulfonamide] | > 50% | * (50 < *) |  |  |  |
| O=C1NC(=S)N/C1=C/c1ccc(-c2ccc(Cl)c(C(=O)O)c2)o1 [Compound 85, 2-Chloro-5-[5-(5-oxo-2-thioxo-imidazolidin-4-ylidenemethyl)furan-2-yl]benzoic_acid] |  |  |  |  | activity at 50 µM ([1]; Table 3, test compound 50 μM, 0.5 nM 125I-BDNF, PC12 cells, 2 h at 4° C., specific binding as percent of control): > 50%; NGF Activity % Maximal Binding ([2]; Table 3): X (40 < X < 50) |
| Cc1cc([N+](=O)[O-])ccc1-c1ccc(/C=C2\NC(=O)N(Cc3ccccc3F)C2=O)o1 [Compound 131, 3-(2-Fluorobenzyl)-5-[5-(2-methyl-4-nitrophenyl)furan-2-ylmethylene]-imidazolidine-2,4-dione] | > 50% | * (50 < *) |  |  |  |
| O=C(O)c1ccc(-c2ccc(/C=C3/NC(=O)N(Cc4ccc(F)cc4)C3=O)o2)cc1 [Compound 126, 4-{5-[1-(4-Fluorobenzyl)-2,5-dioxo-imidazolidin-4-ylidenemethyl]furan-2-yl}benzoic acid] | > 50% | * (50 < *) |  |  |  |
| CCOC(=O)CN1C(=O)S/C(=C\c2ccc(-c3ccc([N+](=O)[O-])cc3)o2)C1=O [Compound 117, {5-[5-(4-Nitrophenyl)furan-2-ylmethylene]-2,4-dioxo-thiazolidin-3-yl}-acetic acid ethyl ester] | > 50% | * (50 < *) |  |  |  |
| CSC1=NC(=Cc2ccc(-c3cccc([N+](=O)[O-])c3)o2)C(=O)S1 [Compound 112, 2-Methylsulfanyl-4-[5-(3-nitrophenyl)furan-2-ylmethylene]-4H-thiazol-5-one] | > 50% | * (50 < *) |  |  |  |
| Cc1cc(C)cc(N2C(=O)/C(=C/c3ccc(-c4ccc(C(=O)O)cc4)o3)C(=O)NC2=S)c1 [Compound 124, 4-{5-[1-(3,5-Dimethylphenyl)-4,6-dioxo-2-thioxo-tetrahydro-pyrimidin-5-ylidenemethyl]furan-2-yl}benzoic acid] |  | * (50 < *) |  |  | activity at 50 µM [1]: > 50% |
| CCOC(=O)c1ccc(-c2ccc(/C=C3/C(=O)NN(c4cccc(C)c4)C3=O)o2)cc1 [Compound 63, 4-[5-(3,5-Dioxo-1-m-tolyl-pyrazolidin-4-ylidenemethyl)furan-2-yl]benzoic acid ethyl ester] |  |  | 40 to 50% | * (50 < *) |  |
| O=C1C(=Cc2ccc(-c3ccc([N+](=O)[O-])cc3)o2)SC(=S)N1c1ccc(O)cc1 [Compound 142, 3-(4-Hydroxyphenyl)-5-[5-(4-nitrophenyl)furan-2-ylmethylene]-2-thioxo-thiazolidin-4-one] | > 50% | * (50 < *) |  |  |  |
| CCOC(=O)c1ccc(-c2ccc(/C=C3/NC(=O)N(c4ccccc4)C3=O)o2)cc1 [Compound 54, 4-[5-(2,5-Dioxo-1-phenyl-imidazolidin-4-ylidenemethyl)furan-2-yl]benzoic acid ethyl ester] |  |  | 30 to 40% | * (50 < *) |  |
| COc1cc([N+](=O)[O-])ccc1-c1ccc(/C=C2/NC(=O)N(c3cccc(Cl)c3)C2=O)o1 [Compound 137, 3-(3-Chlorophenyl)-5-[5-(2-methoxy-4-nitrophenyl)furan-2-ylmethylene]-imidazolidine-2,4-dione] | > 50% | * (50 < *) |  |  |  |
| CCOC(=O)c1ccc(-c2ccc(/C=C3/SC(=S)N(CC(=O)O)C3=O)o2)cc1 [Compound 68, 4-[5-(3-Carboxymethyl-4-oxo-2-thioxo-thiazolidin-5-ylidenemethyl)furan-2-yl]benzoic acid ethyl ester] |  |  |  |  | activity at 50 µM [1, 5]: 0 to 10%; NGF Activity % Maximal Binding ([2]; Table 2): XX (30 < XX < 40) |
| O=C1NC(=O)C(=Cc2ccc(-c3cccc([N+](=O)[O-])c3)o2)S1 [Compound 87, 5-[5-(3-Nitrophenyl)furan-2-ylmethylene]-thiazolidine-2,4-dione] | > 50% | * (50 < *) |  |  |  |
| CCN1C(=O)/C(=C/c2ccc(-c3ccc([N+](=O)[O-])cc3)o2)NC1=S [Compound 55, 3-Ethyl-5-[5-(4-nitrophenyl)furan-2-ylmethylene]-2-thioxo-imidazolidin-4-one] |  |  | 30 to 40% | * (50 < *) |  |
| O=C1NC(=S)NC(=O)C1=Cc1ccc(-c2ccc(C(=O)O)cc2)o1 [Compound 6, 4-[5-(4,6-Dioxo-2-thioxo-tetrahydro-pyrimidin-5-ylidenemethyl)furan-2-yl]benzoic acid] |  |  |  | * (50 < *) | activity at 50 µM [1]: 0 to 10% |
| Cc1c(C(=O)O)cccc1-c1ccc(/C=C2/NC(=O)N(c3cccc(Cl)c3)C2=O)o1 [Compound 130, 3-{5-[1-(3-Chlorophenyl)-2,5-dioxo-imidazolidin-4-ylidenemethyl]furan-2-yl}-2-methylbenzoic acid] | > 50% | * (50 < *) |  |  |  |
| Cc1ccc(C(=O)O)cc1-c1ccc(/C=C2/NC(=O)NC2=O)o1 [Compound 22, 3-[5-(2,5-Dioxo-imidazolidin-4-ylidenemethyl)furan-2-yl]-4-methylbenzoic acid] |  |  | 0 to 10% | * (50 < *) |  |
| COc1cc([N+](=O)[O-])ccc1-c1ccc(/C=C2/SC(=S)N(C)C2=O)o1 [Compound 60, 5-[5-(2-Methoxy-4-nitrophenyl)furan-2-ylmethylene]-3-methyl-2-thioxo-thiazolidin-4-one] |  |  | 40 to 50% | * (50 < *) |  |
| O=C(O)CCCN1C(=O)C(=Cc2ccc(-c3cccc([N+](=O)[O-])c3)o2)SC1=S [Compound 84, 4-{5-[5-(3-Nitrophenyl)furan-2-ylmethylene]-4-oxo-2-thioxo-thiazolidin-3-yl}-butyric acid] |  |  |  |  | activity at 50 µM [1, 5]: 40 to 50%; NGF Activity % Maximal Binding ([2]; Table 2): XXXXX (0 < XXXXX < 10) |
| COc1cc([N+](=O)[O-])ccc1-c1ccc(/C=C2/NC(=O)N(Cc3ccccc3F)C2=O)o1 [Compound 133, 3-(2-Fluorobenzyl)-5-[5-(2-methoxy-4-nitrophenyl)furan-2-ylmethylene]-imidazolidine-2,4-dione] | > 50% | * (50 < *) |  |  |  |
| Cc1cccc(N2NC(=O)C(=Cc3ccc(-c4ccc(S(N)(=O)=O)cc4)o3)C2=O)c1 [Compound 9, 4-[5-(3,5-Dioxo-1-m-tolyl-pyrazolidin-4-ylidenemethyl)furan-2-yl]benzenesulfonamide] |  |  | 0 to 10% | * (50 < *) |  |
| CCOC(=O)c1ccc(N2NC(=O)/C(=C/c3ccc(-c4cccc(C(=O)O)c4)o3)C2=O)cc1 [Compound 57, 3-{5-[3,5-Dioxo-1-phenyl-(4-ethyl ester)-pyrazolidin-4-ylidenemethyl]furan-2-yl}benzoic acid] |  |  | 40 to 50% | * (50 < *) |  |
| O=C(O)c1ccc(-c2ccc(/C=C3/NC(=O)N(Cc4ccccc4F)C3=O)o2)cc1 [Compound 136, 4-{5-[1-(2-Fluorobenzyl)-2,5-dioxo-imidazolidin-4-ylidenemethyl]furan-2-yl}benzoic acid] | > 50% | * (50 < *) |  |  |  |
